Data reported in patent publication US20080038402A1, “RUMINANT ANIMAL FEED FORMULATIONS AND METHODS OF FORMULATING SAME” (priority 2006, published 2008).
Marks after values point to notes of the source that are not given here.

Assays:
[1] = test system: rumen fluid; assay: Rumen fluid pH and volatile fatty acids in rumen-fistulated cows (4x4 latin square); type: in vivo
Experimental: (§1) The use of the RAFA, were compared with an animal control. A four by four latin square design was used, employing four rumen-fistulated cows. Cows were fed a standard TMR (total mixed ration) for at least 7 days prior to the start of the experiment, and were assigned to one of the following four 21 day ration sequences: ABCD, BCDA, CDAB, and DABC, where A, B, C, and D are as follows: (A) control (standard TMR); (B) Monensin (control diet plus 200 mg/kg monensin); (C) Surfactant (control diet plus 316 mg/kg Surfactant); (D) Essential Oil (control diet plus 5 mg/kg Essential Oil).
(§2) Rumen fluid was sampled via the fistula using the Geishawer probe according to standard methodology, with sampling done 2 hours pre-feeding, and again at 2, 4, and 6 hours post-feeding at day 19, 20 or 21 of a 21 day feeding period. Fluid was strained through 4 ply cheesecloth into duplicate containers treated with phosphoric acid (preservative). At the end of each feeding period, rumen fluid from the 2 hours pre-feeding sample was placed into a pre-warmed half litre vacuum flask and forwarded for in vitro studies, described below. The vacuum flask was filled and covered immediately after sampling.
Rumen fluid pH and volatile fatty acids (VEA) were measured.

[2] = test system: rumen fluid; assay: Rumen ammonia level after incubation, by treatment and soy process; type: cell-based, cows; details: by treatment
Experimental: (§3) Temperature, pH, redox on strained and unstrained rumen fluid were measured to assess viability and consistency. The rumen fluid was incubated for 6 hours at 39° C. with (1) control 0.13 g soybean meal (SBM) and 0.13 g TMR food sample; and (2) test 0.13 g Top Soy and 0.13 g TMR. Samples were analyzed for ammonia concentration and substrate disappearance.
This trial further validates the adjustments applied to KB in the method when monensin sodium, Surfactant or Essential Oil are included in the diet. Adjustment factors for each RAFA were calculated as the ratio of additive ammonia production to that of the control and applied to the KB during formulation.

[3] = test system: rumen fluid; assay: Redox, pH and dry matter disappearance of rumen fluid incubated 6 hours at 39° C.; type: cell-based, cows; details: by treatment
Experimental: as §2, §3

[4] = test system: rumen fluid; assay: Example 3a in vitro rumen fluid incubation (gas, DMD, VFA): monensin, soy oil, Ca salts of soy oil; type: cell-based
Source text: One objective of this experiment was to compare these lipid sources (soy oil and calcium salts of soy oil) with each other and in the presence and absence of monensin sodium.
Production of iso-valeric acid and n-valeric acid was also used to estimate the level of protein (specifically branched chain amino acid) degradation in the rumen (Benchaar et al 1998), and results of VFA production can thus be used as an adjustment factor to express the benefit of such additives on protein degradability.
(§4) The measurement of rumen gas production over time is a well described technique (Minson 1998) and is subject to small variation between laboratories. In this laboratory, the substrate employed in all experiments was based on a dried TMR sample. Data from gas measurement observations using two replicates (true volume corrected by subtraction of corresponding negative control values at similar time point) was analyzed by ANOVA with time, treatment, and replicate as main effects in the model. The interaction of time by treatment by replicate was used as the error term. Dry matter digestibility was analyzed by ANOVA with treatment as the main effect in the model and treatment by replicate interaction as the error term. VFA parameters were analyzed by ANOVA with treatment as the main effect in the model and treatment by replicate interaction as the error term.
Statistical summaries are given in Tables 10-12 below for Mean Gas Production (0 to 6 hours incubation), DMD (Dry Matter Digestibility) %, VFA Tot. (Volatile Fatty Acids total moles), Acetic, Propionic, Butyric, Isobutyric, Isovaleric, and n-Valeric acids (molar percentages).
This trial further validates the adjustments applied to KB when monensin and soy oil are included in the diet either separately or in combination. Adjustment factors are calculated as the ratio of rumen active feed additive valerate production (i-valeric acid plus n-valeric acid) in the combination treatment to that of the control (TMR with CaSalts of SoyOil). Using this approach, KB can be adjusted by the following factors: • Monensin=6.36/7.20=0.88 • SoyOil=6.95/7.20=0.97 • Monensin+SoyOil=5.40/7.20=0.75

[5] = test system: rumen fluid; assay: Example 3c in vitro rumen fluid incubation (gas, DMD, VFA): monensin, organic acid, yeast culture, fermentation solubles; type: cell-based
Experimental: as §4, with “Data from gas measurement observations using two replicates (true volume corrected by subtraction of corresponding negative control values at similar time point) was analyzed by ANOVA with time, treatment, and replicate as main effects in the model.” left out
The protocol used in Example 3a was also used in 3c to investigate the additive effects of other RAFA
Statistical summaries were tabulated in Tables 18-20 below for Mean Gas Production (0 to 6 hours incubation), DMD (Dry Matter Digestibility) %, VFA Tot. (Volatile Fatty Acids total moles), Acetic, Propionic, I-Butyric, n-Butyric, Isovaleric, and n-Valeric acids (molar percentages).

[6] = test system: rumen fluid; assay: Rumen gas production in vitro (rumen fluid added to buffer and food source, 0 to 6 hours); type: cell-based; details: by treatment of donor cows
Experimental: as §2
Rumen fluid samples were also added to buffer and food source, and gas production was recorded from time 0 to 6 hours.

[7] = test system: rumen-fistulated cows; assay: Daily milk production and feed consumption; type: in vivo; details: by treatment
Experimental: as §1

[8] = test system: rumen fluid; assay: Concentration and breakdown of VFA in vitro in incubated rumen fluid; type: cell-based, cows; details: by treatment
Experimental: as §3
Concentration and breakdown of volatile fatty acids (VFA) in vitro were tabulated in Table 7, below, as results of statistical analysis across all timepoints.

monensin sodium
Rumen pH ([1]; by treatment across all time points, 21 day ration, monensin 200 mg/kg, Surfactant 316 mg/kg, Essential Oil 5 mg/kg diet): 6.07
Acetic (acetic acid) ([1]; rumen fluid by treatment): 57.90^b molar percentage
Prop (propionic acid) ([1]; rumen fluid by treatment): 24.91^c molar percentage
VFA total ([1]; rumen fluid by treatment): 102.64^b mmol/L
i-But (i-butyric acid) ([1]; rumen fluid by treatment): 0.95^b molar percentage
i-Val (i-valeric acid) ([1]; rumen fluid by treatment): 1.08^c molar percentage
n-But (n-butyric acid) ([1]; rumen fluid by treatment): 12.33 molar percentage
n-Val (n-valeric acid) ([1]; rumen fluid by treatment): 2.82^b molar percentage
Molar yields of propionate ([1]; rumen fluid by treatment, control 24.81): 25.56
Baseline-corrected Ammonia post incubation [2]: 27.49^a mg/L
Baseline-corrected percent Ammonia reduction with Top Soy relative to SBM [2]: 45.26%
pH at T0 [3]: 6.31
DMD % ([3]; 6 hours at 39° C.): 40.43%
Redox (seconds) at T0 ([3]; cell viability): 30 s
Acetic ([4]; VFA): 60.97^ab molar %
Prop ([4]; VFA): 20.82^b molar %
i-But ([4]; VFA): 1.06^c molar %
i-Val ([4]; VFA): 4.65^a molar %
n-But ([4]; VFA): 10.79 molar %
n-Val ([4]; VFA): 1.71 molar %
Mean Gas ml 0–6 hr ([4]; calculated as increase over Control, 6.6 mg/L monensin, 6 g/L lipid): 5.31^e ml
DMD % ([4]; dry matter disappearance): 43.48^a %
VFA, moles ([4]; total VFA production): 52.51^a moles
DMD % ([5]; Dry Matter Digestibility): 19.4^ad %
Acetic ([5]; VFA): 60.5 mmol/100 mmol
Prop ([5]; VFA): 22.4^ab mmol/100 mmol
i-But ([5]; VFA): 4.1^bc mmol/100 mmol
i-Val ([5]; VFA): 1.5^abd mmol/100 mmol
n-But ([5]; VFA): 10.2 mmol/100 mmol
n-Val ([5]; VFA): 1.2^abc mmol/100 mmol
Mean Gas ml 0–6 hr ([5]; calculated as increase over negative Control): −0.9^b ml
VFA total ([5]; total yields): 41.6^b mmol/L
GAS [6]: 10.39^c ml
DMI (dry matter intake) [7]: 24.7^ab kg/day
Milk [7]: 43.7 kg/day
Milk/kg DMI [7]: 1.77
Acetic [8]: 58.62^a molar percentage
Prop [8]: 25.51^a molar percentage
VFA total [8]: 75.03^c mmol/L
i-But [8]: 1.18 molar percentage
i-Val [8]: 1.44^b molar percentage
n-But [8]: 12.09^bc molar percentage
n-Val [8]: 1.16^c molar percentage
